Data published in patent US11446276B2, “Extreme low dose THC as a therapeutic and prophylactic agent for Alzheimer's disease” (University of South Florida, priority 2015, dated 2022).
“Also recorded” adds a separate entry of the source.

Key:
Aβ peptide = Aβ peptide (Homo sapiens, UniProt P05067); experiment: Western blot of aggregated Aβ peptide / Aβ monomer; assay type: biochemical; conditions: 100 nM, 10 nM, 1 nM THC; FIGS. 4A, 4B
Method: FIG. 4A is a western blot showing aggregated Aβ peptide with and without THC treatment.
FIG. 4B is a graph showing the relative quantity of Aβ monomer in the anti-aggregation study described in FIG. 4A. Cells were untreated for the aggregation control or treated with and 100 nM THC, 10 nM THC, and 1 nM THC.
In untreated samples, Aβ peptide increased in intensity for the first 20 minutes, followed by a plateauing of fluorescence at around 30 minutes, at which time the intensity remained constant for the duration of the study. […] Therefore, THC's direct interaction with the Aβ peptide will not dampen an immune response to clear the Aβ peptide. Further analysis with western blot was performed measuring the anti-aggregation properties of THC with Aβ peptide.

Tau = experiment: Western blot of Tau in N2a/AβPPswe cells; assay type: cell-based
Method: (§1) FIG. 6C is a western blot assay showing Tau and phosphorylated Tau (pTau) levels in N2a/AβPPswe treated with 25 nM THC, 2.5 nM THC, or 0.25 nM THC. Anti-Tau, anti-pTau and β-actin antibodies were used to detect Tau and pTau, and β-actin that served as the protein loading control.
(§2) FIG. 11C is a western blot assay showing Tau and phosphorylated Tau levels in N2a/AβPPswe treated as follows: untreated (CTRL, control), or 10^−5 M Melatonin with 2.5 nM THC, 10^−6 M Melatonin with 2.5 nM THC. Anti-Tau and anti-pTau antibodies were used to […] that served as the protein loading control.
(§3) Amyloid processing and ancillary amyloid protein effects were next tested. After stripping the Western, and restaining for AβPP, using anti-Tau (Chuanhai Cao, Tampa, Fla.), anti-pTau (Chuanhai Cao, Tampa, Fla.), and anti-β-actin antibodies (Cat #A54441, Sigma Aldrich, Merck KGaA; Darmstadt, Germany)) were used to detect Tau levels against a protein loading control (β-actin). After data was collected the membrane was stripped using a western blot striping buffer (Cat #21059, Thermo Fisher Scientific, Waltham, Mass.) and stained for AβPP using 6E10 antibody (Cat #803002, BioLegend, Inc., San Diego, Calif.). Anti-mouse secondary horseradish peroxidase (Cat #A9044, Sigma Aldrich, Merck KGaA; Darmstadt, Germany) secondary antibodies were used.

[1] = target: acetylcholinesterase (AChE) (Homo sapiens, UniProt P22303); conditions: THC 50 μM; cited from earlier work
brain energy metabolism = conditions: repeated high doses of THC (10 mg/kg body weight); rat brains; cited from earlier work
[2] = test system: Aβ40 in N2a/AβPPswe cells; experiment: Aβ40 ELISA of N2a/AβPPswe cells treated with THC or caffeine; assay type: cell-based, human; conditions: for Aβ40 levels versus control: THC 0.25-2500 nM or caffeine 0.625-10 μM; for Percentage of decreased Aβ40: THC 2.5 μg/mL compared with the control; for Aβ40 (pg/mL) in THC-treated cells: THC 2.5 μg/mL, N2a/AβPPswe cells
CB1 receptor = experiment: RT-PCR for CB1 receptor expression level; conditions: cells treated with low doses of THC
[3] = target: AChE induced Aβ aggregation (Homo sapiens, UniProt P22303); conditions: THC 50 μM; cited from earlier work
[4] = test system: phosphorylated Tau (pTau); experiment: Western blot of phosphorylated Tau in N2a/AβPPswe cells; assay type: cell-based
Method: as §1, §2, §3

N2a/AβPPswe cells = experiment: MTT toxicity assay; conditions: 36 hours; different concentrations; versus untreated cells; FIG. 9A
Method: Cells were plated in 96-well tissue culture plate at 10,000 cells/well, 100 μL/well. 100 μL THC solution was added at 2× concentrations in each well. Control groups are: 1) cells without THC treatment, cells and fresh medium only and 2) blank, wells with medium without cells. All wells were replicated. Wells were incubated for 36 hours. Cell proliferation kit (Roche 11465007001) was then applied for toxicity assay according to the standard protocol. 10 μL of MTT reagent was first added to each well and incubated at 37° C. for 4 hours. Then 100 μL of solubilization solution was added to each well. These were incubated overnight and optical density (OD) values were read at 575 nm. The percentage of cell viability was calculated as: Cell viability %=(OD−OD blank)/(OD control−OD blank).

Aβ1-40 peptide = target: T1, Aβ1-40 peptide (Homo sapiens, UniProt P05067); experiment: ThT assay of Aβ aggregation; assay type: biochemical; conditions: THC 0.25-250 nM; Aβ1-40 1 μM; FIG. 3A
T1 construct: purchased Biomer Technology, Pleasanton, Calif
Method: A ThT assay was conducted to examine the interaction between THC and Aβ, as ThT incorporates into Aβ when the amyloid protein aggregates, indicating whether there is a direct interaction between THC and Aβ aggregation.
Hexafluoroisopropanol-(HFIP) pretreated Aβ1-40 peptide (Biomer Technology, Pleasanton, Calif.). THC solution was prepared at concentration of 250 nM, 25 nM, 2.5 nM, and 0.25 nM in thioflavin T (ThT) (1.6 μg/mL dissolved in 20 mM Tris-HCL). The THC-ThT was added into black 96 well plates. Unaggregated Aβ peptide solution was thawed, diluted, and immediately added to wells, making the final concentration of Aβ1-40 at 1 μM. Control groups were setup as: 1) aggregation control; 2) control with ThT buffer only; and 3) Tris-HCl buffer only. Plate was mixed and fluorescence was read at 482 nm with excitation 440 nm with Biotek All-in-One plate reader. Fluorescence was screened for 2 hours with 5-minute intervals.

[5] = test system: isolated mitochondria from N2a/AβPPswe cells; experiment: Respiratory function of isolated mitochondria (Clark type oxygen electrode); assay type: cell-based
Method: FIG. 14A is a graph showing basal mitochondrial function after treatment with THC and a combination of THC and melatonin. N2a/AβPPswe cells were cultured in 10 cm tissue culture plate and then treated with drugs for 36 hours and mitochondria were harvested and tested for their ability of using oxygen utilization. Samples were loaded as follows; Ctrl, Control, or 10^−5 M Melatonin with 2.5 nM THC, 10^−6 M Melatonin with 2.5 nM THC, 2.5 nM THC, 10^−5 M Melatonin, or 10^−6 M Melatonin+2.5 nM THC.
FIG. 14B is a graph showing mitochondrial function in the presence of FCCP after treatment with THC alone as well as with a combination of THC and melatonin. N2a/AβPPswe cells were cultured in 10 cm tissue culture plate and then treated with drugs for 36 hours and mitochondria were harvested and tested for their ability of using oxygen utilization. Samples were loaded as follows; Ctrl, Control, or 10^−5 M Melatonin with 2.5 nM THC, 10^−6 M Melatonin with 2.5 nM THC, 2.5 nM THC, 10^−5 M Melatonin, or 10^−6 M Melatonin+2.5 nM THC.

mitochondrial function = conditions: THC 10 to 50 micromolar; cited from earlier work

T1 sequence (P05067 672-711): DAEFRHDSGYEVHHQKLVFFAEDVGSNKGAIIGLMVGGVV
Chain of Aβ peptide (P05067 672-711 limits assumed): as the sequence (P05067 672-711) above
Chain of AChE induced Aβ aggregation (P22303 32-614): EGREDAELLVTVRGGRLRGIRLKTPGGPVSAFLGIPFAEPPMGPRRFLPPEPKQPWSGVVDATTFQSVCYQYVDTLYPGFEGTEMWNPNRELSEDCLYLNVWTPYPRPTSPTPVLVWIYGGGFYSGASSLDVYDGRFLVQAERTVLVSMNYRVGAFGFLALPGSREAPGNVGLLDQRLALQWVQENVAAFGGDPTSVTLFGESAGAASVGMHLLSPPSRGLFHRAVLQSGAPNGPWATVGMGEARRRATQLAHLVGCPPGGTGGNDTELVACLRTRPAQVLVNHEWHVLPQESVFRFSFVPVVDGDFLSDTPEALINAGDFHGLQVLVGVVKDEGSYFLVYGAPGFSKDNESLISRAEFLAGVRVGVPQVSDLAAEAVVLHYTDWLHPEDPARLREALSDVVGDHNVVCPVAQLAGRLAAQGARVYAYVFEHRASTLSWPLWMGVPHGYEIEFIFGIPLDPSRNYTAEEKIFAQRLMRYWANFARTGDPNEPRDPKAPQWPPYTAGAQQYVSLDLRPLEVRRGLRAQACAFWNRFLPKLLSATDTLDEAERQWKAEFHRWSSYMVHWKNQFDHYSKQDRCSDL
Chain of acetylcholinesterase (AChE) (P22303 32-614): as above

CCCCCc1cc(O)c2c(c1)OC(C)(C)[C@@H]1CCC(C)=C[C@@H]21 [THC, Δ9-tetrahydrocannabinol]
Relative quantity of Aβ monomer (Aβ peptide): increases monomeric Aβ; also recorded: higher relative % of Aβ monomer | Tau level among THC concentrations (Tau; 2.5 nM THC, FIGS. 6C, 7): lowest level of Tau | Tau protein levels (standardized to β-actin), THC alone (Tau; 25 nM, 2.5 nM, 0.25 nM THC, FIG. 7): lowers the production of Tau; also recorded: reduces Tau protein levels | Inhibition of AChE [1]: competitively inhibits | Brain energy metabolism (brain energy metabolism): dampen the brain energy metabolism | Aβ levels at the lowest dose ([2]; 6 hours, THC 0.25 nM): minor increase | Aβ40 levels versus control ([2]; 6 hours, FIG. 1A): dose-dependent decrease; also recorded: significant reduction | Percentage of decreased Aβ40 ([2]; 6 hr): 9.23% | Aβ40 (pg/mL) in THC-treated cells ([2]; 6 hr): 965.827 pg/mL | Aβ40 levels versus control ([2]; 24 hours, FIG. 1B): dose-dependent decrease; also recorded: exponential drop | Percentage of decreased Aβ40 ([2]; 24 hr): 31.19% | Aβ40 (pg/mL) in THC-treated cells ([2]; 24 hr): 3648.975 pg/mL | Aβ40 levels versus control ([2]; 48 hours, FIG. 1C): dose-dependent decrease; also recorded: significantly differed more | Percentage of decreased Aβ40 ([2]; 48 hr): 51.24% | Aβ40 (pg/mL) in THC-treated cells ([2]; 48 hr): 2894.175 pg/mL | CB1 receptor expression level (RT-PCR) (CB1 receptor): no significant upregulation | AChE induced Aβ aggregation [3]: prevents AChE induced Aβ aggregation | Ratio of pTau:Tau among THC concentrations ([4]; 2.5 nM THC, FIG. 8): peak of pTau:Tau ratio | Phosphorylated Tau levels, THC alone ([4]; 25 nM, 2.5 nM, 0.25 nM THC, FIGS. 6C, 6D): reduction by THC in a dose-dependent manner; also recorded: lowers the phosphorylation of tau in a dose dependent manner; also recorded: decreases phosphorylated Tau | Ratio of phosphorylated Tau to Tau, THC alone ([4]; 25 nM, 2.5 nM, 0.25 nM THC, FIGS. 8, 13): increase the ratio of pTau:Tau; also recorded: increase in phosphorylated Tau; also recorded: increases phosphorylated Tau | Toxicity (reduction of MTT, OD) (N2a/AβPPswe cells): no significant difference from the control; also recorded: no toxicity; also recorded: lack of toxicity | Thioflavin T fluorescence intensity / Aβ aggregation (Aβ1-40 peptide): lowers Aβ aggregation; also recorded: dose-dependent decrease; also recorded: inhibits Aβ40 aggregation | Respiration / oxygen utilization of isolated mitochondria ([5]; 2.5 nM THC alone or with 10 μM or 1 μM melatonin, early and late stages of respiration): higher oxygen utilization | Basal mitochondrial function (oxygen utilization) ([5]; 36 hours treatment, FIG. 14A): enhance mitochondrial function | Mitochondrial function in the presence of FCCP ([5]; 36 hours treatment, FIG. 14B): enhance mitochondrial function | Cell death (mitochondrial function): induces cell death | Mitochondrial function (mitochondrial function): inhibitor of mitochondrial function
